From patent publication US8410085B2, “Phospholipid compositions and uses thereof” (Baylor College of Medicine, priority 2007, dated 2013)

What was measured:
LRH-1 [1] = target: T1, LRH-1 (Homo sapiens, UniProt O00482); assay: LRH-1 Luc reporter in C3A HepG2 cells (endogenous hLRH-1); details: C3A/HepG2 cells or cells with non-target control siRNAs
[2] = target: hLRH-1 LBD / SRC-3 receptor interaction domain (Homo sapiens, UniProt O00482); assay: mammalian two-hybrid assay, VP16-hLRH1 LBD with Gal4-SRC3 RID in HeLa cells
Chain of hLRH-1 LBD / SRC-3 receptor interaction domain (O00482 300-539 limits assumed): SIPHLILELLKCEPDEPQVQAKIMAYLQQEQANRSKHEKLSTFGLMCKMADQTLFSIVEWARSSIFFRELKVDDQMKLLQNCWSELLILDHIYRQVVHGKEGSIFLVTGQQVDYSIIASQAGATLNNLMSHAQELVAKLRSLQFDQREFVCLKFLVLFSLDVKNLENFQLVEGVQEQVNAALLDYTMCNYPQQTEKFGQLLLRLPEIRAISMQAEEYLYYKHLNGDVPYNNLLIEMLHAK
Chain of hLRH-1 LBD / SRC-3 receptor interaction domain (Q9Y6Q9 whole entry partner, the tested form may be a part): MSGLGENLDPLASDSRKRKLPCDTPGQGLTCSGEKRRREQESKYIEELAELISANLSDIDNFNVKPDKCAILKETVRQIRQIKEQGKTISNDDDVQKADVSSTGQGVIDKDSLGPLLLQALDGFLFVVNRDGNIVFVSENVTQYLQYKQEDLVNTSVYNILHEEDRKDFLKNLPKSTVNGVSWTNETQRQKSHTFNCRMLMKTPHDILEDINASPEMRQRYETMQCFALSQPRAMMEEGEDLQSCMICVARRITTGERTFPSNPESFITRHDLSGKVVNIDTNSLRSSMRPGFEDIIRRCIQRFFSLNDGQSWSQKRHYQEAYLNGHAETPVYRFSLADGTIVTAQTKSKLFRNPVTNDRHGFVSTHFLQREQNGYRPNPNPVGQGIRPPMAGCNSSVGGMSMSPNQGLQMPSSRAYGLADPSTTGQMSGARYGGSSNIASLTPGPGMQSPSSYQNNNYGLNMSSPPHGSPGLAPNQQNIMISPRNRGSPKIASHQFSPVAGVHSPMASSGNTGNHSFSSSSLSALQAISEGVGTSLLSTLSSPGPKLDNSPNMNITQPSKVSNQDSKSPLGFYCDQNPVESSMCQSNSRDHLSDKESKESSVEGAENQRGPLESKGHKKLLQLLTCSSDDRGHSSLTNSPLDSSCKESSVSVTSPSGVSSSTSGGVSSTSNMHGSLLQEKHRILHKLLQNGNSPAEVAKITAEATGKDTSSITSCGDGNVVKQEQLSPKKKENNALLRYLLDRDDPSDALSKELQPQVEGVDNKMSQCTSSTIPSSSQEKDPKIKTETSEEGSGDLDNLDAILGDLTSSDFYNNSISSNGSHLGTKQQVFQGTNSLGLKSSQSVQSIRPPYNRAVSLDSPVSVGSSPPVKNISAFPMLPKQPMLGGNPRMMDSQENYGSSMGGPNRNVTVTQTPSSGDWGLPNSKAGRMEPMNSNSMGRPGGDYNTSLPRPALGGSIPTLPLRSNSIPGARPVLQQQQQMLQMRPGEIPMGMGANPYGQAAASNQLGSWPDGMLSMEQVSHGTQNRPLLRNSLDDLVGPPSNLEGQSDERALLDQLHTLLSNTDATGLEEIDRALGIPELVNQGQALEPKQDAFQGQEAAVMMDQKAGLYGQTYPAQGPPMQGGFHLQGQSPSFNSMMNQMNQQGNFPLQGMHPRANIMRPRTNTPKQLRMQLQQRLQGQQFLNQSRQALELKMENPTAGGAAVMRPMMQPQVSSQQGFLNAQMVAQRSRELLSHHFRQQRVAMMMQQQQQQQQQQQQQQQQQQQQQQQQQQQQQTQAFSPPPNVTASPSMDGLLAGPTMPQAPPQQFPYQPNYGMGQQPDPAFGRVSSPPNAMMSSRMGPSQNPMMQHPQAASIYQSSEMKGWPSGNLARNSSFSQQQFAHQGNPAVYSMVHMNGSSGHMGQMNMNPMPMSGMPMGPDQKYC

SF-1 [3] = target: T2, SF-1 (Homo sapiens, UniProt Q13285); assay: SF-1 transactivation, reporter cotransfection in HeLa cells
T2 sequence (Q13285 whole entry): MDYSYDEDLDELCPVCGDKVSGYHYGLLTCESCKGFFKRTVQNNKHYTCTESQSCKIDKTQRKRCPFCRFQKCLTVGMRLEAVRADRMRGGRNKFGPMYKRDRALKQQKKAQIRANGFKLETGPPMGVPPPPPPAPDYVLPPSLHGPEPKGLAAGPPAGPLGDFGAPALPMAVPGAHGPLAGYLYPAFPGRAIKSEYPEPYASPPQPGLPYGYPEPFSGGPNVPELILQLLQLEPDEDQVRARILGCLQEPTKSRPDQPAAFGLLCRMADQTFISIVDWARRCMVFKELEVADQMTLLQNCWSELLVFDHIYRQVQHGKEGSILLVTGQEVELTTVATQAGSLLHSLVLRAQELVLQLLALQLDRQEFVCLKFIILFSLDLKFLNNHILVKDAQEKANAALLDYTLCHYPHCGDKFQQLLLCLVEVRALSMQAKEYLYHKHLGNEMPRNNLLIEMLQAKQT

SF-1 [4] = target: T2, SF-1; set-up: expressed in transfected cells; host or cells: HeLa; details: in vitro, Li et al. Mol Cell Biol 2007; read-out: affinity of SF-1; cited from earlier work
LRH-1 [5] = target: T1, LRH-1; assay: human LRH-1 transactivation, HeLa cotransfection with LRH-1/SF-1 response element luciferase reporter; type: cell-based; set-up: expressed in transfected cells; host or cells: HeLa (A1, A3); details: HeLa cells, 100 μM
Experimental: Controls (vector only and no lipid) are as indicated. […] Cells were treated with 100 μM of the indicated PCs and luciferase expression (RLU, relative light units) was normalized using an internal β-galactosidase control. vec, empty vector; −, ethanol solvent control.
HeLa cells were transfected with an hLRH-1 expression vector along with mSHP1080-Luc reporter. […] Oct4-PPmut Luc is identical to Oct4-PP Luc except for the insertion of point mutations in the DR0 element. […] HeLa cells were cotransfected with various nuclear receptors and the reporter plasmid (RE-tk-luc). […] Data are expressed for each reporter as fold activation of normalized luciferase activity relative to veh-treated cells.
A number of different phosphatidylcholine (PC) species were screened for effects on human LRH-1 transactivation in HeLa cell cotransfections with a synthetic luciferase reporter containing multiple copies of an LRH-1/SF-1 response element.

hepatic gene expression = assay: hepatic mRNA levels in db/db mice
LRH-1 target Cyp8B1 = assay: hCYP8B1 expression by Q-PCR in C3A HepG2 cells; details: for expression of Cyp8B1: C3A/HepG2 cells or cells with non-target control siRNAs
db/db mice [6] = assay: glucose tolerance and insulin tolerance tests in db/db mice; type: in vivo, mouse; details: for glucose tolerance test (GTT): oral gavage 2 weeks
Experimental: Glucose tolerance (GTT: 1.5 g/kg i.p.) was assessed in fasted mice. One week later, insulin tolerance (ITT: 2 U/kg i.p) was assessed in fed mice. In the ITT, glucose levels after insulin injection are presented as the percentage of initial glucose concentrations.
After 1 week of additional treatment, the same mice were given an insulin tolerance test (ITT) and sacrificed.

db/db mice [7] = assay: body and organ weights, serum and hepatic parameters in db/db mice
[8] = system: hepatic expression of Cyp7A1, Cyp8B1, mSR-BI, SHP; assay: hepatic gene expression (Q-PCR) in wild type mice after oral gavage; type: in vivo, mouse; details: 100 mg/kg oral, five times over three days
Text: (§1) Total liver RNA was isolated and prepared for the cDNA. […] Total liver RNA was isolated and prepared for cDNA.

LRH-1 [9] = target: T1, LRH-1; assay: Oct4 proximal promoter (Oct4-PP Luc) activation by hLRH-1 in COS-1 cells; details: COS-1 cells, Oct4-PP Luc
wild type male mice = assay: bile acids, serum glucose and NEFA in wild type mice after oral gavage; type: in vivo, mouse; details: 100 mg/kg oral
LRH-1 [10] = assay: hepatic gene expression in LRH-1 f/f mice infected with Ad-Cre; type: in vivo, mouse; details: 100 mg/kg oral
Text: as §1

RXRα = RXRα (Homo sapiens, UniProt P19793); assay: nuclear receptor cotransfection (RE-tk-luc), HeLa cells; details: 100 μM
Chain of RXRα (P19793 whole entry): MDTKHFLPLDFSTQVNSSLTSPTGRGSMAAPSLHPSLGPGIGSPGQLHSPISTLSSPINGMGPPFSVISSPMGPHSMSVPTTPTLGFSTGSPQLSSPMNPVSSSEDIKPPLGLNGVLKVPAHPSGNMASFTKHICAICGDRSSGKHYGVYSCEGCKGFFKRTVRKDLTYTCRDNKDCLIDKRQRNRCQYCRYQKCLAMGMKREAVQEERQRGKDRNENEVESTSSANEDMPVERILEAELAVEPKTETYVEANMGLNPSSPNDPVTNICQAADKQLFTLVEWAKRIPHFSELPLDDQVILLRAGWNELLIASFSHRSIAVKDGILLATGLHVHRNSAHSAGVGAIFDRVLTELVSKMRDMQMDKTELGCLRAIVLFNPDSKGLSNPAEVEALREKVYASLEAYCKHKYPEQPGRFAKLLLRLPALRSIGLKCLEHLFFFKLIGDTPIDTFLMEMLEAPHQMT

ERα = ERα (Homo sapiens, UniProt P03372); assay: as above; details: 100 μM
FXR = FXR (Homo sapiens, UniProt Q96RI1); assay: as above; details: 100 μM
TRβ = TRβ (Homo sapiens, UniProt P10828); assay: as above; details: 100 μM
Chain of TRβ (P10828 whole entry): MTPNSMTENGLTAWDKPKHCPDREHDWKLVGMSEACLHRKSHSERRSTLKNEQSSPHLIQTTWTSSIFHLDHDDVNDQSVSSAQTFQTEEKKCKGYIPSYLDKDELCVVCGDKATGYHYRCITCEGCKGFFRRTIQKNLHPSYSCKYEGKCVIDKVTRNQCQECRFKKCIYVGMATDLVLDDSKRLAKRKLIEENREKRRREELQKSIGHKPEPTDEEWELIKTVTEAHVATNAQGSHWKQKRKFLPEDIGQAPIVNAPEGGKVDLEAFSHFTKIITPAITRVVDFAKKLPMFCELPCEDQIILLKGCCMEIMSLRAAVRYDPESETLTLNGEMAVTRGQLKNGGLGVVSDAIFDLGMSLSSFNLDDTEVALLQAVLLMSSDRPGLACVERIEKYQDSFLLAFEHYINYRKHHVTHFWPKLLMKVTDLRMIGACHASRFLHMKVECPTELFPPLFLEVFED

human PXR = human PXR (Homo sapiens, UniProt O75469); assay: as above; details: 100 μM
human CAR = human CAR (Homo sapiens, UniProt Q14994); assay: as above; details: 100 μM
LXRα = LXRα (Homo sapiens, UniProt Q13133); assay: as above; details: 100 μM
PPARδ = PPARδ (Homo sapiens, UniProt Q03181); assay: as above; details: 100 μM
RARβ = RARβ (Homo sapiens, UniProt P10826); assay: as above; details: 100 μM
Chain of RARβ (P10826 whole entry, species assumed): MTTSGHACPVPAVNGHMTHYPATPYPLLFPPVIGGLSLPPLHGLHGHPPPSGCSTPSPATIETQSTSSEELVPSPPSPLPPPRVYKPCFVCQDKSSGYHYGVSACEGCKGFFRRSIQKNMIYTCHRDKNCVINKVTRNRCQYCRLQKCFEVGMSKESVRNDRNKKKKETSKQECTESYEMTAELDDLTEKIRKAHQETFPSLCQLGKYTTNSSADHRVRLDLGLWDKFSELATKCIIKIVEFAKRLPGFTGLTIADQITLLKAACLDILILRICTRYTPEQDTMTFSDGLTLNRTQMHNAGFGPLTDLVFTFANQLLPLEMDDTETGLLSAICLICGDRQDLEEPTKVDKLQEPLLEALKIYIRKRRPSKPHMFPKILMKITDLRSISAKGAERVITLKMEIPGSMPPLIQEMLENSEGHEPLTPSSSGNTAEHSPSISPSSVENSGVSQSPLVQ

mouse CAR = mouse CAR (Mus musculus, UniProt O35627); assay: as above; details: 100 μM
PPARα = PPARα (Homo sapiens, UniProt Q07869); assay: as above; details: 100 μM
Chain of PPARα (Q07869 whole entry, species assumed): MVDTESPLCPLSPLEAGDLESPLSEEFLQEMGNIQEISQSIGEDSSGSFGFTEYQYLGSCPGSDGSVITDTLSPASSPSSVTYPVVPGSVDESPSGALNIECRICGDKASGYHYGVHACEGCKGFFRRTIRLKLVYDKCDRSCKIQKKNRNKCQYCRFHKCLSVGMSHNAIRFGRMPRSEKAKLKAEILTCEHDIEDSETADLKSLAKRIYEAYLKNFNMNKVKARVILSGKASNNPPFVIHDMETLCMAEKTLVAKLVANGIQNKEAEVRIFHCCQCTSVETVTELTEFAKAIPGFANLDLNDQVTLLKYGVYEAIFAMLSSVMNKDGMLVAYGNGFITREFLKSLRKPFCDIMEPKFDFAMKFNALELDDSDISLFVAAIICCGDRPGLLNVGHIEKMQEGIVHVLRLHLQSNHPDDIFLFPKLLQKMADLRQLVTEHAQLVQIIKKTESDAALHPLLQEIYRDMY

PPARγ = PPARγ (Homo sapiens, UniProt P37231); assay: as above; details: 100 μM
Chain of PPARγ (P37231 whole entry, species assumed): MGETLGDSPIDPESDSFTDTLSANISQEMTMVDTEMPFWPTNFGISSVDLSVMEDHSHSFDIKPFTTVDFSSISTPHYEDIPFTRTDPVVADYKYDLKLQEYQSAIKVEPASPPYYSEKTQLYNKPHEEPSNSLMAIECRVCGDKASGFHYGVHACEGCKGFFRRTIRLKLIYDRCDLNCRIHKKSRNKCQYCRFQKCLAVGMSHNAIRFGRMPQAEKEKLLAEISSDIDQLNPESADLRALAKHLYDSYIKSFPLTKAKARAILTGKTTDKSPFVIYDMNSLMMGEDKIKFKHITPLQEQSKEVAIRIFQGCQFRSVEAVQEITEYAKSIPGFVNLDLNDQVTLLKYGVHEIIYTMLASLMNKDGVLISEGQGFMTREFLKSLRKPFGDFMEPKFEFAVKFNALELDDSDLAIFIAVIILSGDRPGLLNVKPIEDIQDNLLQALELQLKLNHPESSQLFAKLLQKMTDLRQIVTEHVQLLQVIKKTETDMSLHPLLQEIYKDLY

T1 sequence (O00482 whole entry, the tested form may be a part): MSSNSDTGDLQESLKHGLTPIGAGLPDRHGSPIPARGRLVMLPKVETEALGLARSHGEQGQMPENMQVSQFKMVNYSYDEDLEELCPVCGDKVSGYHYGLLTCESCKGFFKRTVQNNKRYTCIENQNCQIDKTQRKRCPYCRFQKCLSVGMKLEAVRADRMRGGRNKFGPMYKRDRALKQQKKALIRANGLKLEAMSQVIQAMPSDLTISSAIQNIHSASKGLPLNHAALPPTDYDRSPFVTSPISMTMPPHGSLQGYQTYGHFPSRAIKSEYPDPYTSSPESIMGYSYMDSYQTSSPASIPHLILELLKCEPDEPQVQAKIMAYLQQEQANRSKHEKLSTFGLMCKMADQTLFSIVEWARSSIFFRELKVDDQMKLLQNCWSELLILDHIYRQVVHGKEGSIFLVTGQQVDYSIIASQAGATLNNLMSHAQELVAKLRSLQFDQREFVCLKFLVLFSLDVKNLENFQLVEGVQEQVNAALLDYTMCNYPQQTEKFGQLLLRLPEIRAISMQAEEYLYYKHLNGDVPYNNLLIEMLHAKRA

C[C@H](CCC(=O)O)[C@H]1CC[C@H]2[C@@H]3[C@H](O)C[C@@H]4C[C@H](O)CC[C@]4(C)[C@H]3CC[C@]12C [CDCA, chenodeoxycholic acid]
LRH-1 Luc luciferase activity (LRH-1 [1]): not
interaction of hLRH-1 LBD with SRC-3 RID [2]: unaffected

CCCCCCCCCCCCCC(=O)OC[C@H](COP(=O)(O)O)OC(=O)CCCCCCCCCCCCC [C14:0-C14:0 PA]
increase of SF-1 transactivation (SF-1 [3]): 1.2-1.4 fold
Kd (SF-1 [4]): ~100 nM
LRH-1 transactivation (luciferase) (LRH-1 [5]): no effect

CCCCCCCCCCCC(=O)OC[C@H](COP(=O)(O)OCCN)OC(=O)CCCCCCCCCCC [C12:0-12:0 PE]
LRH-1 transactivation (luciferase) (LRH-1 [5]): no activation

CCCCCCCCCCCCCC(=O)OC[C@H](COP(=O)(O)OCCN)OC(=O)CCCCCCCCCCCCC [C14:0-C14:0 PE]
LRH-1 transactivation (luciferase) (LRH-1 [5]): no activation

CCCCCCCCCCCCCCCC(=O)OC[C@H](COP(=O)([O-])OCC[N+](C)(C)C)OC(=O)CCCCCCCCCCCCCCC [DPPC, dipalmitoyl PC, reference compound]
SR-B1 expression (hepatic gene expression; db/db mice): not significantly affected
hepatic expression of Cyp7A1 (hepatic gene expression; db/db mice): not
hepatic expression of genes associated with glucose homeostasis (ACC1, glucokinase, hexokinase 1 and 2, PEPCK, glucose-6-phosphatase, pyruvate carboxylase, PGC-1α) (hepatic gene expression; db/db mice): no effect
SHP expression (hepatic gene expression; db/db mice, not statistically significant): appeared to be decreased
LRH-1 Luc luciferase activity (LRH-1 [1]): not
interaction of hLRH-1 LBD with SRC-3 RID [2]: unaffected
expression of Cyp8B1 (LRH-1 target Cyp8B1): not
glucose tolerance test (GTT) (db/db mice [6]): lesser beneficial response
serum bile acid levels (db/db mice [7]): not
total body weight (db/db mice [7]): not altered
weight of liver (db/db mice [7]): not altered
weight of reproductive fat pads (db/db mice [7]): not altered
hepatic expression of Cyp7A1 [8]: without significant effect
hepatic expression of Cyp8B1 [8]: without significant effect
hepatic expression of SHP [8]: without significant effect
hepatic expression of mSR-BI [8]: without significant effect
response with the Oct4 promoter (LRH-1 [9]): not

C[C@H](CCC(=O)O)[C@H]1CC[C@H]2[C@@H]3[C@H](O)C[C@@H]4C[C@H](O)CC[C@]4(C)[C@H]3C[C@H](O)[C@]12C [CA, cholic acid, reference compound]
liver bile acids (wild type male mice): did not show statistically significant changes
serum bile acid levels (wild type male mice): substantially elevated
serum free fatty acids (wild type male mice): decreased levels
serum glucose levels (wild type male mice): not
hepatic gene expression response when LRH-1 gene removed by Cre (LRH-1 [10]): lost
hepatic expression of Cyp7A1 [8]: reduced
hepatic expression of Cyp8B1 [8]: reduced
hepatic expression of SHP [8]: induced
hepatic expression of mSR-BI [8]: induced
response with the Oct4 promoter (LRH-1 [9]): not

CCCCCCCCCCCC(=O)OCC(COP(=O)([O-])OCC[N+](C)(C)C)OC(=O)CCCCCCCCCCC (stereo not drawn) [DLPC, dilauroylphosphatidylcholine]
SHP expression (hepatic gene expression; mouse, in vivo): appeared to be decreased
expression of ACC2 (hepatic gene expression; mouse, in vivo): significantly decreased
expression of FAS (hepatic gene expression; mouse, in vivo): significantly decreased
expression of SCD-1 (hepatic gene expression; mouse, in vivo): significantly decreased
expression of SREBP-1c (hepatic gene expression; mouse, in vivo): significantly decreased
hepatic expression of Cyp7A1 (hepatic gene expression; mouse, in vivo): increased expression
hepatic expression of Cyp8B1 (hepatic gene expression; mouse, in vivo): increased expression
hepatic expression of genes associated with glucose homeostasis (ACC1, glucokinase, hexokinase 1 and 2, PEPCK, glucose-6-phosphatase, pyruvate carboxylase, PGC-1α) (hepatic gene expression; mouse, in vivo): no effect
SF-1 activation (SF-1 [3]; 100 μM): activate SF-1
activation or inhibition of RXRα (RXRα): did not activate or inhibit
activation or inhibition of ERα (ERα): did not activate or inhibit
activation or inhibition of FXR (FXR): did not activate or inhibit
activation or inhibition of TRβ (TRβ): did not activate or inhibit
activation or inhibition of human PXR (human PXR): did not activate or inhibit
activation or inhibition of human CAR (human CAR): did not activate or inhibit
activation or inhibition of LXRα (LXRα): did not activate or inhibit
activation or inhibition of PPARδ (PPARδ): did not activate or inhibit
activation or inhibition of RARβ (RARβ): did not activate or inhibit
liver bile acids (wild type male mice): somewhat lower
serum bile acid levels (wild type male mice): substantially elevated
serum free fatty acids (wild type male mice): decreased levels
serum glucose levels (wild type male mice): decreased serum glucose levels
total bile acid pool (wild type male mice): significant increase
activation or inhibition of mouse CAR (mouse CAR): did not activate or inhibit
expression of Cyp8B1 (LRH-1 target Cyp8B1): modestly but significantly induced
Cyp8B1 response when LRH-1 expression is knocked down (LRH-1 target Cyp8B1; siRNA hLRH-1): lost
glucose tolerance test (GTT) (db/db mice [6]): remarkable improvement
insulin tolerance test (ITT) (db/db mice [6]; oral gavage 3 weeks): remarkable improvement
hepatic NEFA (db/db mice [7]): more modestly lowered
hepatic cholesterol (db/db mice [7]): increased
hepatic triglycerides (TG) (db/db mice [7]): significantly decreased
serum bile acid levels (db/db mice [7]): significantly increased
serum cholesterol (db/db mice [7]): modestly decreased
serum free fatty acids (NEFA) (db/db mice [7]): modestly decreased
total body weight (db/db mice [7]): not altered
weight of liver (db/db mice [7]): not altered
weight of reproductive fat pads (db/db mice [7]): not altered
activation or inhibition of PPARα (PPARα): did not activate or inhibit
hepatic expression of Cyp7A1 [8]: significantly induced
hepatic expression of Cyp8B1 [8]: significantly induced
hepatic expression of SHP [8]: repressed
hepatic expression of mSR-BI [8]: significantly induced
activation or inhibition of PPARγ (PPARγ): did not activate or inhibit

CCCCCCCCCC(=O)OC[C@H](COP(=O)(O)OCCN)OC(=O)CCCCCCCCC [C10:0-10:0 PE]
LRH-1 transactivation (luciferase) (LRH-1 [5]): no activation
